In general, IC50 refers to the concentration needed to halve the response being measured.

For one test, the target named is T1, kinase-domain human PKCι (Homo sapiens, UniProt P41743).
T1 construct: Recombinant, kinase-domain human PKCι is expressed and purified in-house; made in house
T1 sequence (P41743 254-522 limits assumed): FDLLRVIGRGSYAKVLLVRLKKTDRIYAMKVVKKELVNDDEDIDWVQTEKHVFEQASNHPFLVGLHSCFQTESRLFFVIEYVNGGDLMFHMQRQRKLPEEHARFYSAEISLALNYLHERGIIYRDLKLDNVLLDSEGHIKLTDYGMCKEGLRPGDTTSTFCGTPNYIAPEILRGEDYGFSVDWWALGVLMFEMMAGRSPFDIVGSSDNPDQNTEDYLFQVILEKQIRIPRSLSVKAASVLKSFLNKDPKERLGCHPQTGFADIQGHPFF
Nature of the test: PKCι IC50 IMAP fluorescence polarisation assay, kinase-domain enzyme. The class given is biochemical. The conditions noted are these: kinase domain PKCi at 2 μM ATP; read-out: IC50 in IMAP assay against kinase domain PKCi.
Take `Cc1csc2c(N(C)CCN)nc(-c3ccncc3)nc12` [compound 365, N*1*-Methyl-N*1*-(7-methyl-2-pyridin-4-yl-thieno[3,2-d]pyrimidin-4-yl)-ethane-1,2-diamine]: the IC50 is 1 to 10 µM.

Take `C[C@@H](N)CNc1nc(-c2ccncc2)nc2cc(-c3ccccc3)sc12` [compound 366, (R)-N*1*-(6-Phenyl-2-pyridin-4-yl-thieno[3,2-d]pyrimidin-4-yl)-propane-1,2-diamine]: the IC50 was in the range of 10 to 40 µM.

In the case of `Cc1csc2c(O[C@H]3CCNC3)nc(-c3ccncc3)nc12` [compound 483, 7-Methyl-2-pyridin-4-yl-4-((S)-pyrrolidin-3-yloxy)-thieno[3,2-d]pyrimidine], the IC50 was in the range of 10 to 40 µM.

In the case of `C[C@H](N)CNc1nc(-c2ccncc2)nc2cc(C(C)(C)C)sc12` [compound 307, (S)-N*1*-(6-tert-Butyl-2-pyridin-4-yl-thieno[3,2-d]pyrimidin-4-yl)-propane-1,2-diamine], the IC50 was 10 to 40 µM.

Regarding `Cc1csc2c(N3CCCNCC3)nc(-c3ccncc3)nc12` [compound 362, 4-[1,4]Diazepan-1-yl-7-methyl-2-pyridin-4-yl-thieno[3,2-d]pyrimidine], the half-maximal inhibitory concentration (IC50) was 0.1 to 1 µM.

Turning to `Cc1csc2c(NCCN)nc(-c3ccncc3)nc12` [compound 370, N*1*-(7-Methyl-2-pyridin-4-yl-thieno[3,2-d]pyrimidin-4-yl)-ethane-1,2-diamine], the concentration for half-maximal inhibition (IC50) was 0.1 to 1 µM.

In the case of `C[C@H](N)CNc1nc(-c2ccncc2)nc2cc(-c3ccccc3)sc12` [compound 367, (S)-N*1*-(6-Phenyl-2-pyridin-4-yl-thieno[3,2-d]pyrimidin-4-yl)-propane-1,2-diamine], the IC50 fell in the range of 10 to 40 µM.

The same test, now with this note: kinase domain PKCi at 2 μM ATP; read-out: IC50 in IMAP assay against kinase domain PKCi (Activity).
As for `c1cc(-c2nc(N3CCNCC3)c3c4c(sc3n2)CCCCC4)ccn1` [compound 85, 4-Piperazin-1-yl-2-pyridin-4-yl-6,7,8,9-tetrahydro-5H-10-thia-1,3-diaza-benzo[a]azulene], the IC50 was in the range of 0.1 to 1 µM.

Turning to `CC[C@@H](N)COc1nc(-c2ccncc2)nc2sc3c(c12)CCCC3` [compound 149, (R)-1-(2-Pyridin-4-yl-5,6,7,8-tetrahydro-benzo[4,5]thieno[2,3-d]pyrimidin-4-yloxymethyl)-propylamine], the IC50 lay within 1 to 10 µM.

As for `CSCC[C@@H](N)CNc1nc(-c2ccncc2)nc2sc3c(c12)CCCC3` [compound 6, (R)-4-Methylsulfanyl-N*1*- (2-pyridin-4-yl-5,6,7,8-tetrahydro-benzo[4,5]thieno[2,3-d]pyrimidin-4-yl)-butane-1,2-diamine], the IC50 was in the range of 1 to 10 µM.

Regarding `c1cc(-c2nc(OC[C@@H]3CCCN3)c3c4c(sc3n2)CCCC4)ccn1` [compound 154, 2-Pyridin-4-yl-4-((S)-1-pyrrolidin-2-ylmethoxy)-5,6,7,8-tetrahydro-benzo[4,5]thieno[2,3-d]pyrimidine], the IC50 was 1 to 10 µM.

`CC(C)c1cc2c(NCCN)nc(-c3ccncc3)nc2s1` [compound 40, N*1*-(6-Isopropyl-2-pyridin-4-yl-thieno[2,3-d]pyrimidin-4-yl)-ethane-1,2-diamine]: the IC50 was in the range of 1 to 10 µM.

`c1cc(-c2nc(OC[C@@H]3CCCCN3)c3c4c(sc3n2)CCCC4)ccn1` [compound 179, 4-((S)-1-Piperidin-2-ylmethoxy)-2-pyridin-4-yl-5,6,7,8-tetrahydro-benzo[4,5]thieno[2,3-d]pyrimidine]: the half-inhibitory concentration (IC50) lay within 10 to 40 µM.

Regarding `c1cc(-c2nc(OC3CCCNC3)c3c4c(sc3n2)CCCC4)ccn1` (stereo not drawn) [compound 141, 4-(Piperidin-3-yloxy)-2-pyridin-4-yl-5,6,7,8-tetrahydro-benzo[4,5]thieno[2,3-d]pyrimidine], the IC50 was 1 to 10 µM.

For the molecule `N[C@H](COc1nc(-c2ccncc2)nc2sc3c(c12)CCCC3)Cc1cccc(F)c1` [compound 163, (S)-1-(3-Fluoro-benzyl)-2-(2-pyridin-4-yl-5,6,7,8-tetrahydro-benzo[4,5]thieno[2,3-d]pyrimidin-4-yloxy)-ethylamine], the IC50 lay in the range of 1 to 10 µM.

Turning to `C[C@@H]1CN[C@@H](C)CN1c1nc(-c2ccncc2)nc2sc3c(c12)CCCC3` [compound 10, 4-((2R,5S)-2,5-Dimethyl-piperazin-1-yl)-2-pyridin-4-yl-5,6,7,8-tetrahydro-benzo[4,5]thieno[2,3-d]pyrimidine], the 50% inhibitory concentration (IC50) is 1 to 10 µM.

For the molecule `CC(C)[C@H](N)COc1nc(-c2ccncc2)nc2sc3c(c12)CCCC3` [compound 151, (S)-2-Methyl-1-(2-pyridin-4-yl-5,6,7,8-tetrahydro-benzo[4,5]thieno[2,3-d]pyrimidin-4-yloxymethyl)-propylamine], the IC50 was 1 to 10 µM.

With `C[C@@H](N)COc1nc(-c2ccncc2)nc2sc3c(c12)CCCC3` [compound 145, (R)-1-Methyl-2-(2-pyridin-4-yl-5,6,7,8-tetrahydro-benzo[4,5]thieno[2,3-d]pyrimidin-4-yloxy)-ethylamine], the half-maximal inhibitory concentration (IC50) was 1 to 10 µM.

Consider `Brc1cccc(CN2CCN(c3nc(-c4ccncc4)nc4sc5c(c34)CCCC5)CC2)c1` [compound 127, 4-[4-(3-Bromo-benzyl)-piperazin-1-yl]-2-pyridin-4-yl-5,6,7,8-tetrahydro-benzo[4,5]thieno[2,3-d]pyrimidine], for which the IC50 was 10 to 40 µM.

With `Cc1n[nH]c(C)c1-c1nc(NC[C@H](C)N)c2c3c(sc2n1)CCCC3` [compound 192, (S)-N*1*-[2-(3,5-Dimethyl-1H-pyrazol-4-yl)-5,6,7,8-tetrahydro-benzo[4,5]thieno[2,3-d]pyrimidin-4-yl]-propane-1,2-diamine], the IC50 fell in the range of 1 to 10 µM.

Take `CN(C)CCOc1nc(-c2ccncc2)nc2sc3c(c12)CCCC3` [compound 135, dimethyl-[2-(2-pyridin-4-yl-5,6,7,8-tetrahydro-benzo[4,5]thieno[2,3-d]pyrimidin-4-yloxy)-ethyl]-amine]: the IC50 was in the range of 1 to 10 µM.

Regarding `N[C@H](COc1nc(-c2ccncc2)nc2sc3c(c12)CCCC3)C1CCCCC1` [compound 156, (S)-1-cyclohexyl-2-(2-pyridin-4-yl-5,6,7,8-tetrahydro-benzo[4,5]thieno[2,3-d]pyrimidin-4-yloxy)-ethylamine], the half-inhibitory concentration (IC50) was 1 to 10 µM.

In the case of `C[C@H](N)CNc1nc(-c2ccncc2)nc2sc3c(c12)CCCCC3` [compound 88, (S)-N*1*-(2-Pyridin-4-yl-6,7,8,9-tetrahydro-5H-10-thia-1,3-diaza-benzo[a]azulen-4-yl)-propane-1,2-diamine], the 50% inhibitory concentration (IC50) is 0.1 to 1 µM.

Take `c1cc(-c2nc(N[C@H]3CCNC3)c3c4c(sc3n2)CCCC4)ccn1` [compound 20, (2-Pyridin-4-yl-5,6,7,8-tetrahydro-benzo[4,5]thieno[2,3-d]pyrimidin-4-yl)-(S)-pyrrolidin-3-yl-amine]: the IC50 lay in the range of 1 to 10 µM.

On to `c1ccc(-c2cc3nc(-c4ccncc4)nc(N4CCNCC4)c3s2)cc1` [compound 301, 6-phenyl-4-piperazin-1-yl-2-pyridin-4-yl-thieno[3,2-d]pyrimidine], for which the IC50 lay within 1 to 10 µM.

As to `CC1CCc2c(sc3nc(-c4ccncc4)nc(NC[C@@H](N)Cc4ccccc4)c23)C1` (stereo partly drawn) [compound 69, (S)-N*1*-(7-Methyl-2-pyridin-4-yl-5,6,7,8-tetrahydro-benzo[4,5]thieno[2,3-d]pyrimidin-4-yl)-3-phenyl-propane-1,2-diamine], the IC50 lay in the range of 0.1 to 1 µM.

On to `CC[C@@H](N)CNc1nc(-c2ccncc2)nc2sc3c(c12)CCCC3` [compound 17, (R)-N*1*-(2-Pyridin-4-yl-5,6,7,8-tetrahydro-benzo[4,5]thieno[2,3-d]pyrimidin-4-yl)-butane-1,2-diamine], for which the IC50 lay within 1 to 10 µM.
